In brackets after ≈: the same amount, converted by molar mass. Activity calls are given as the source filed them. No cut-off for these calls is given here.
Key:
[1] = Cytotoxicity against HK-2 cells assessed as cell viability at 50 mg/L incubated for 72 hrs by CCK8 assay relative to control; type: toxicity, cell-based; settings: human, at 50 µg/mL, read-out: Activity
[2] = system: Staphylococcus aureus; test: Antibacterial activity against vancomycin-intermediate Staphylococcus aureus Mu50 incubated for 16 to 24 hrs by broth microdilution assay; type: functional; settings: time 16-24 hrs
[3] = system: Staphylococcus aureus; test: Antibacterial activity against methicillin-resistant Staphylococcus aureus USA300 LAC incubated for 16 to 24 hrs by broth microdilution assay; type: functional; settings: time 16-24 hrs
[4] = system: Enterococcus faecium; test: Antibacterial activity against vancomycin-resistant Enterococcus faecium Efm-HS-0649 harboring VanA phenotype incubated for 16 to 24 hrs by broth microdilution assay; type: functional; settings: time 16-24 hrs
[5] = system: Enterococcus faecium; test: Antibacterial activity against vancomycin-resistant Enterococcus faecium Efm-HS-08257 harboring VanM phenotype incubated for 16 to 24 hrs by broth microdilution assay; type: functional; settings: time 16-24 hrs
[6] = system: Enterococcus faecium; test: Antibacterial activity against vancomycin-resistant Enterococcus faecium Efm-HS-vb01 harboring VanB phenotype incubated for 16 to 24 hrs by broth microdilution assay; type: functional; settings: time 16-24 hrs
[7] = system: Enterococcus faecium; test: Antibacterial activity against vancomycin-resistant Enterococcus faecium Efm-HS-vb02 harboring VanB phenotype incubated for 16 to 24 hrs by broth microdilution assay; type: functional; settings: time 16-24 hrs
[8] = system: Escherichia coli; test: Antibacterial activity against Escherichia coli AB1157 incubated for 16 to 24 hrs by broth microdilution assay; type: functional; settings: time 16-24 hrs
[9] = system: Acinetobacter baumannii; test: Antibacterial activity against carbapenem-resistant Acinetobacter baumannii CRAB-1 clinical isolate incubated for 16 to 24 hrs by broth microdilution assay; type: functional; settings: time 16-24 hrs
[10] = system: Acinetobacter baumannii; test: Antibacterial activity against Acinetobacter baumannii ATCC19606 incubated for 16 to 24 hrs by broth microdilution assay; type: functional; settings: time 16-24 hrs
[11] = system: Pseudomonas aeruginosa; test: Antibacterial activity against Pseudomonas aeruginosa PAO1 incubated for 16 to 24 hrs by broth microdilution assay; type: functional; settings: time 16-24 hrs
[12] = system: Klebsiella pneumoniae; test: Antibacterial activity against Klebsiella pneumoniae KP-1 incubated for 16 to 24 hrs by broth microdilution assay; type: functional; settings: time 16-24 hrs
[13] = Cytotoxicity against mouse AML12 cells assessed as cell viability at 50 mg/L incubated for 72 hrs by CCK8 assay relative to control; type: toxicity, cell-based; settings: at 50 µg/mL, read-out: Activity
[14] = system: Bacteria; test: Antibacterial activity against Gram-positive bacteria incubated for 16 to 24 hrs by broth microdilution assay; type: functional; settings: time 16-24 hrs
[15] = Acute toxicity in mouse assessed as animal suvival at 40 mg/kg, iv measured for 7 days; type: organism-based; settings: in vivo, 168 h, time 7 day
[16] = Hemolytic activity against rat erythrocytes at 100 ug/ml incubated for 1 hr by absorbance based assay; type: toxicity, cell-based, Erythrocyte
[17] = Half life in CD-1 mouse at 5 mg/kg, iv measured for 0.05 to 24 hrs by UPLC analysis; type: ADME, organism-based; settings: in vivo, time 0.05-24 hrs
[18] = AUClast in CD-1 mouse at 5 mg/kg, iv measured for 0.05 to 24 hrs by UPLC analysis; type: ADME, organism-based; settings: in vivo, time 0.05-24 hrs
[19] = AUC (infinity) in CD-1 mouse at 5 mg/kg, iv measured for 0.05 to 24 hrs by UPLC analysis; type: ADME, organism-based; settings: in vivo, time 0.05-24 hrs
[20] = Clearance in CD-1 mouse at 5 mg/kg, iv measured for 0.05 to 24 hrs by UPLC analysis; type: ADME, organism-based; settings: in vivo, time 0.05-24 hrs
[21] = MRT (infinity) in CD-1 mouse at 5 mg/kg, iv measured for 0.05 to 24 hrs by UPLC analysis; type: ADME, organism-based; settings: in vivo, time 0.05-24 hrs
[22] = Volume of distribution at steady state in CD-1 mouse at 5 mg/kg, iv measured for 0.05 to 24 hrs by UPLC analysis; type: ADME, organism-based; settings: in vivo, time 0.05-24 hrs, read-out: Vdss
[23] = Drug concentration in CD-1 mouse at 5 mg/kg, iv measured after 8 hrs; type: ADME, organism-based; settings: in vivo, read-out: Drug uptake
[24] = system: Staphylococcus aureus; test: Antibacterial activity against methicillin-resistant Staphylococcus aureus USA300 LAC infected in female BALB/c mouse assessed as animal survival rate at 7 mg/kg, iv measured for 7 days consecutively relative to control; type: functional
[25] = system: Enterococcus faecium; test: Antibacterial activity against vancomycin-resistant Enterococcus faecium SC-2022-D2-059 harboring VanA phenotype infected in ICR mouse assessed as animal survival rate at 10 to 20 mg/kg, iv measured for 7 days relative to control; type: functional; settings: dose 10-20 mg/kg, time 7 day
[26] = system: Enterococcus faecium; test: Antibacterial activity against vancomycin-resistant Enterococcus faecium SC-2022-D2-059 harboring VanA phenotype infected in ICR mouse assessed as animal survival rate at 5 mg/kg, iv measured for 7 days relative to control; type: functional; settings: SC-2022-D2-059, 168 h, time 7 day
[27] = system: Enterococcus faecium; test: Antibacterial activity against vancomycin-resistant Enterococcus faecium SC-2022-D2-059 harboring VanA phenotype incubated for 16 to 24 hrs by broth microdilution assay; type: functional; settings: time 16-24 hrs
[28] = system: Staphylococcus aureus; test: Induction of membrane permeability in methicillin-resistant Staphylococcus aureus USA300 LAC by fluorescence based analysis; type: functional, organism-based; settings: dose 2.67-170 µg/ml
[29] = system: Staphylococcus aureus; test: Dissipation of membrane potential in methicillin-resistant Staphylococcus aureus USA300 LAC at 1.3 to 170 ug/ml by DiSC3(5) dye based analysis; type: functional, organism-based; settings: dose 1.3-170 µg/ml
[30] = system: Acinetobacter baumannii; test: Induction of outer membrane permeability in carbapenem-resistant Acinetobacter baumannii CRAB-1 clinical isolate by NPN dye based analysis; type: functional, organism-based; settings: dose 1.33-170 µg/ml
[31] = system: Staphylococcus aureus; test: Inhibition of peptidoglycan biosynthesis in methicillin-resistant Staphylococcus aureus USA300 LAC assessed as fold increase in accumulation of Park's nucleotide at 5 ug/ml incubated for 2 hrs by RP-HPLC analysis; type: functional; settings: dose 5 µg/ml
[32] = Protein binding in plasma (unknown origin); type: ADME, cell-free; settings: read-out: PPB (converted)
[33] = system: Enterococcus faecium; test: Antibacterial activity against vancomycin-resistant Enterococcus faecium SC-2022-D2-059 harboring VanA phenotype infected in ICR mouse assessed as animal survival rate at 20 mg/kg, iv measured for 7 days relative to control; type: functional; settings: SC-2022-D2-059, 168 h, time 7 day
[34] = system: Staphylococcus aureus; test: Antibacterial activity against methicillin-resistant Staphylococcus aureus USA300 LAC infected in mouse model; type: functional
[35] = system: Staphylococcus aureus; test: Antibacterial activity against methicillin-resistant Staphylococcus aureus […] infected in CD-1 mouse model assessed as animal survival rate at 7 mg/kg, iv measured for 15 days relative to control; type: functional; settings: 360 h, time 15 day
[36] = system: Staphylococcus aureus; test: Antibacterial activity against vancomycin-intermediate Staphylococcus aureus XN108 infected in CD-1 mouse model assessed as animal survival rate at 7 mg/kg, iv measured for 15 days relative to control; type: functional; settings: XN108, 360 h, time 15 day

CN[C@H](CC(C)C)C(=O)N[C@H]1C(=O)N[C@@H](CC(N)=O)C(=O)N[C@H]2C(=O)N[C@H]3C(=O)N[C@H](C(=O)N[C@H](C(=O)O)c4cc(O)c(CNCCC[S+](C)CC(O)COc5ccc(-c6ccc(C(F)(F)F)cc6)cc5)c(O)c4-c4cc3ccc4O)[C@H](O)c3ccc(c(Cl)c3)Oc3cc2cc(c3O[C@@H]2O[C@H](CO)[C@@H](O)[C@H](O)[C@H]2O[C@H]2C[C@](C)(N)[C@H](O)[C@H](C)O2)Oc2ccc(cc2Cl)[C@H]1O.O=C([O-])C(F)(F)F (some centres undefined)
viability at 72 h, 50 mg/L [1]: ~100% | MIC [2]: 0.125 µg/mL | MIC [3]: 0.031 µg/mL | MIC [4]: 0.5 µg/mL | MIC [5]: 2 µg/mL | MIC [6]: ≤ 0.063 µg/mL | MIC [7]: ≤ 0.063 µg/mL | MIC [8]: 8 µg/mL | MIC [9]: 32 µg/mL | MIC [10]: 16 µg/mL | MIC [11]: > 128 µg/mL | MIC [12]: 128 µg/mL | viability at 72 h, 50 mg/L [13]: ~100% | MIC [14]: ≤ 0.063 µg/mL | Activity [15]: Non-toxic | Activity ([16]; erythrocyte, 1 h, dose 100 µg/ml): Toxic | half-life [17]: 3.57 h | AUC(0-t) [18]: 41600 ng·h/mL | AUC(0-inf) [19]: 42000 ng·h/mL | clearance [20]: 2.28 mL/min/kg | MRT inf [21]: 3.98 h | Vd [22]: 0.566 L/kg | concentration at 8 h [23]: ~700 ng/mL | survival at 7 mg/kg ([24]; 168 h, time 7 day): 100% | Survival [25]: 100% | survival at 5 mg/kg [26]: 50% | MIC [27]: 0.12 µg/mL | Activity [28]: Dose-dependent-effect | Activity [29]: Active | Activity [30]: Active | fold change (FC) [31]: <=3

CN[C@H](CC(C)C)C(=O)N[C@H]1C(=O)N[C@@H](CC(N)=O)C(=O)N[C@H]2C(=O)N[C@H]3C(=O)N[C@H](C(=O)N[C@H](C(=O)O)c4cc(O)cc(O)c4-c4cc3ccc4O)[C@H](O)c3ccc(c(Cl)c3)Oc3cc2cc(c3O[C@@H]2O[C@H](CO)[C@@H](O)[C@H](O)[C@H]2O[C@H]2C[C@](C)(N)[C@H](O)[C@H](C)O2)Oc2ccc(cc2Cl)[C@H]1O [VANCOMYCIN]
MIC [2]: 8 µg/mL (≈ 5.52 µM) | MIC [4]: > 128 µg/mL | MIC [5]: > 128 µg/mL | MIC [6]: > 128 µg/mL | MIC [7]: 16 µg/mL (≈ 11 µM) | MIC [8]: > 128 µg/mL | MIC [9]: > 128 µg/mL | MIC [10]: > 128 µg/mL | MIC [11]: > 128 µg/mL | MIC [12]: > 128 µg/mL | fraction unbound [32]: 0.9 | hemolysis at 1 h, 100 ug/ml ([16]; erythrocytes, at 100 µg/mL, read-out: Activity): ~6% | Activity ([24]; time 7.0 day): inactive | survival at 20 mg/kg [33]: 0% | MIC [27]: ≥ 128 µg/mL

CCCCCCCCC(O)C[S+](C)CCCNCc1c(O)cc2c(c1O)-c1cc(ccc1O)[C@H]1NC(=O)[C@@H]3NC(=O)[C@H](CC(N)=O)NC(=O)[C@H](NC(=O)[C@@H](CC(C)C)NC)[C@H](O)c4ccc(c(Cl)c4)Oc4cc3cc(c4O[C@@H]3O[C@H](CO)[C@@H](O)[C@H](O)[C@H]3O[C@H]3C[C@](C)(N)[C@H](O)[C@H](C)O3)Oc3ccc(cc3Cl)[C@@H](O)[C@H](NC1=O)C(=O)N[C@@H]2C(=O)O.O=C([O-])C(F)(F)F (some centres undefined)
MIC [2]: 0.25 µg/mL | MIC [3]: ≤ 0.063 µg/mL | MIC [4]: 8 µg/mL | MIC [5]: 2 µg/mL | MIC [6]: ≤ 0.063 µg/mL | MIC [7]: 1 µg/mL | MIC [8]: 32 µg/mL | MIC [11]: > 128 µg/mL | MIC [12]: > 128 µg/mL | half-life [17]: 1.13 h | AUC(0-t) [18]: 7050 ng·h/mL | AUC(0-inf) [19]: 7080 ng·h/mL | clearance [20]: 12 mL/min/kg | MRT inf [21]: 0.931 h | Vd [22]: 0.672 L/kg | Efficacy [34]: 53.3% | survival at 7 mg/kg [35]: 86.7% | survival at 7 mg/kg [36]: 80%

— ChEMBL document CHEMBL6134868, “Novel Aryl Sulfonium Modification on Vancomycin to Tackle MRSA and VRE In Vitro and In Vivo through Dual Enhanced Cell-Wall and Membrane Inhibition” (J Med Chem, 2025)
